Reference: patent US8987195B2 (priority 2012, dated 2015)
pEC50: −log10 of the molar value.

How the values were obtained:
[1] = test system: HCV genotype 1b replicon; experiment: HCV replicon assay, genotype 1b replicon EC50; type: cell-based, Hepatitis C virus; conditions: Hepatitis C virus, genotype 1b replicon; read-out: EC50 [gt-1b]
Method in brief: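 Stable neomycin phosphotransferase-encoding replicon cell lines, kept under G418 selection beforehand, were plated with a compound dilution series without G418 and incubated 24-48 hours. Replicon RNA was then quantified, or luciferase activity read. EC50 was calculated as percent of DMSO control by four-parameter fit.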

[2] = target: HCV NS3/4A protease genotype 1b (Hepatitis C virus genotype 1b, UniProt P26663); experiment: HCV NS3/4A protease time-resolved fluorescence (TRF) assay, Ki against genotype 1b; type: biochemical; conditions: IC50 [gt-1b] (nM), NS3/4A genotype 1b, enzyme 0.2 nM
Method in brief: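 Enzyme 0.2 nM 1b / 0.4 nM A156T / 0.025 nM 3a; 30 min preinc. w/ cpd; 25 nM TRF peptide; 2.5 h RT; ex 340/em 615 time-delayed; 4-param IC50 → Ki = IC50/(1+[S]/KM).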

Row | Structure (SMILES) | pEC50 [1] | IC50 [2] [nM]
1 | COc1ccc2nc(C3CC3)c3c(c2c1)CC[C@]1(C[C@H]2C(=O)N[C@]4(C(=O)NS(=O)(=O)C5(C)CC5)C[C@H]4/C=C\CCCCC[C@H](NC(=O)NC(C)(C)C)C(=O)N2C1)O3 [Example 90, (2R,6S,12Z,13aS,14aR,16aS)-6-[(tert-butylcarbamoyl)amino]-5′-cyclopropyl-9′-methoxy-N-[(1-methylcyclopropyl)sulfonyl]-5,16-dioxo-1,1′,2′,6,7,8,9,10,11,13a,14,15,16,16a-tetradecahydrospiro[cyclopropa[e]pyrrolo[1,2-a][1,4]diazacyclopentadecine-2,3′-pyrano[2,3-c]quinoline]-14a(5H)-carboxamide] | 8.94 | 0.006
2 | COc1ccc2nc(C3CC3)c3c(c2c1)CC[C@]1(C[C@H]2C(=O)N[C@]4(C(=O)NS(=O)(=O)C5(C)CC5)C[C@H]4/C=C\CCCCC[C@H](NC(=O)OC4CCCC4)C(=O)N2C1)O3 [Example 91, cyclopentyl [(2R,6S,12Z,13aS,14aR,16aS)-5′-cyclopropyl-9′-methoxy-14a-{[(1-methylcyclopropyl)sulfonyl]carbamoyl}-5,16-dioxo-1,1′,2′,5,6,7,8,9,10,11,13a,14,14a,15,16,16a-hexadecahydrospiro[cyclopropa[e]pyrrolo[1,2-a][1,4]diazacyclopentadecine-2,3′-pyrano[2,3-c]quinolin]-6-yl]carbamate] | 9.34 | 0.009
3 | COc1ccc2nc(C3CC3)c3c(c2c1)CC[C@]1(C[C@H]2C(=O)N[C@]4(C(=O)NS(=O)(=O)C5(C)CC5)C[C@H]4/C=C\CCCCC[C@H](NC(=O)OC4(C)CC4)C(=O)N2C1)O3 [Example 92, 1-methylcyclopropyl [(2R,6S,12Z,13aS,14aR,16aS)-5′-cyclopropyl-9′-methoxy-14a-{[(1-methylcyclopropyl)sulfonyl]carbamoyl}-5,16-dioxo-1,1′,2′,5,6,7,8,9,10,11,13a,14,14a,15,16,16a-hexadecahydrospiro[cyclopropa[e]pyrrolo[1,2-a][1,4]diazacyclopentadecine-2,3′-pyrano[2,3-c]quinolin]-6-yl]carbamate] | 9.36 | 0.01
4 | COc1ccc2nc(C3CC3)c3c(c2c1)CC[C@]1(C[C@H]2C(=O)N[C@]4(C(=O)NS(=O)(=O)C5(C)CC5)C[C@H]4/C=C\CCCCC[C@H](NC(=O)NC4CCCC4)C(=O)N2C1)O3 [Example 93, (2R,6S,12Z,13aS,14aR,16aS)-6-[(cyclopentylcarbamoyl)amino]-5′-cyclopropyl-9′-methoxy-N-[(1-methylcyclopropyl)sulfonyl]-5,16-dioxo-1,1′,2′,6,7,8,9,10,11,13a,14,15,16,16a-tetradecahydrospiro[cyclopropa[e]pyrrolo[1,2-a][1,4]diazacyclopentadecine-2,3′-pyrano[2,3-c]quinoline]-14a(5H)-carboxamide] | 8.47 | 0.007
5 | COc1ccc2nc(C3CC3)c3c(c2c1)CC[C@]1(C[C@H]2C(=O)N[C@]4(C(=O)NS(=O)(=O)C5(C)CC5)C[C@H]4/C=C\CCCCC[C@H](NC(=O)OC(C)C)C(=O)N2C1)O3 [Example 94, propan-2-yl [(2R,6S,12Z,13aS,14aR,16aS)-5′-cyclopropyl-9′-methoxy-14a-{[(1-methylcyclopropyl)sulfonyl]carbamoyl}-5,16-dioxo-1,1′,2′,5,6,7,8,9,10,11,13a,14,14a,15,16,16a-hexadecahydrospiro[cyclopropa[e]pyrrolo[1,2-a][1,4]diazacyclopentadecine-2,3′-pyrano[2,3-c]quinolin]-6-yl]carbamate] | 9.21 | 0.003
